In test [1] the target is Cannabinoid receptor 1 (Rattus norvegicus) (UniProt P20272). Put plainly: (§1) […] [3H]WIN-55212 binding to Cannabinoid receptor 1 in rat cerebellum membranes. To be noted: Membrane, concentration not given here. It is filed as cell membranes.
The next test is filed under the species Mus musculus. Description: Concentration required to inhibit electrically induced contractions in isolated mouse vas deferens preparation in vitro. To be noted: Mus musculus. The class given is functional.
The target of a further test is Cannabinoid receptor 1 (Rattus norvegicus, UniProt P20272). The description is as §1. It is filed as cell membranes, Membrane.

Molecules are shown by their SMILES.

Sequence of Cannabinoid receptor 1 (Rattus norvegicus) (P20272 whole entry): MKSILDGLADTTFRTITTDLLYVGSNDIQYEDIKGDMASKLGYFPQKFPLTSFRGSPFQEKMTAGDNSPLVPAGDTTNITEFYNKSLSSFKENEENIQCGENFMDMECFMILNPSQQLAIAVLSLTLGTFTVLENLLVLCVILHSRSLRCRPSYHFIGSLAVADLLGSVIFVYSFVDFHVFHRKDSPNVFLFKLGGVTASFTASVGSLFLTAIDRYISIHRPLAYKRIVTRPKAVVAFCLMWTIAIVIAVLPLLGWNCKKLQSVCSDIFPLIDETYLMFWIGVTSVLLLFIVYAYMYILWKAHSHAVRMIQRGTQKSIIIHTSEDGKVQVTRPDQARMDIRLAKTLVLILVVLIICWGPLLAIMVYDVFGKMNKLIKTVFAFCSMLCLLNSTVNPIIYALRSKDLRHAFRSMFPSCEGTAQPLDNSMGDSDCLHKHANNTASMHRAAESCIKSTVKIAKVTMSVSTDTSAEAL
Sequence of Cannabinoid receptor 1 (P20272 whole entry): as above

With `Cc1c(C(=O)c2ccc(F)cc2)c2ccccc2n1CCN1CCOCC1`, the inhibition in test [1] is 12%.

As to `O=C(c1ccc(Br)c2ccccc12)c1cn(CCN2CCOCC2)c2ccccc12`, the inhibition in test [1] amounted to 98%. Moreover, 5.5 nM corresponded to half-maximal inhibition in the test filed under Mus musculus (IC50).

On to `COc1ccc(C(=O)c2cn(CCN3CCOCC3)c3cc(Br)ccc23)cc1`, for which, in test [1], the inhibition was 21%. The IC50 in the test filed under Mus musculus was found to be 17 nM.

For the molecule `Cc1c(C(=O)c2ccccc2O)c2ccccc2n1CCN1CCOCC1`, the inhibition in test [1] was -2%.

Consider `COc1ccc(C(=O)c2c(Cl)n(CCN3CCOCC3)c3ccccc23)cc1`, for which the inhibition in test [1] was 47%. Further, the IC50 in the test listed under Mus musculus was 176 nM.

As for `COc1ccc(C(=O)c2c(C)n(CCO)c3ccccc23)cc1`, the inhibition in test [1] is -6%. For the same molecule, in the test filed under Mus musculus, the IC50 is over 10000 nM.

For `Cc1c(C(=O)c2ccc3ccc4cccc5ccc2c3c45)c2ccccc2n1CCN1CCOCC1`, the inhibition in test [1] was 89%. Moreover, the IC50 in the test filed under Mus musculus worked out at 42 nM.

In the case of `Cc1c(C(=O)c2ccc(-c3ccccc3)cc2)c2ccccc2n1CCN1CCOCC1`, the inhibition in test [1] stood at 9%. In the test filed under Mus musculus, this molecule displayed an IC50 of 10000 nM.

Take `CC(CN1CCOCC1)n1cc(C(=O)c2cccc3ccccc23)c2ccccc21` (racemic; form 2): the inhibition in test [1] amounted to 94%.

With `Cc1c(C=O)c2ccccc2n1CCN1CCOCC1`, the inhibition in test [1] was found to be 37%. Further, in the test listed under Mus musculus, the IC50 was determined as 656 nM.

On to `COc1ccc(C(=O)c2c(C)n(CCN3CCOCC3)c3ccc(F)cc23)cc1`, for which, in test [1], the inhibition was 19%. For the same molecule, in the test filed under Mus musculus, the midpoint of inhibition, the IC50, lay at 119 nM.

Consider `Cc1cc(C)cc(C(=O)c2c(C)n(CCN3CCOCC3)c3ccccc23)c1`, for which the inhibition in test [1] came out at 42%. Besides, the midpoint of inhibition in the test listed under Mus musculus, the IC50, lay at 390 nM.

As for `COc1ccc(C(=O)c2c(C)n(CCN3CCOCC3)c3cccc(C)c23)cc1`, the inhibition in test [1] was 42%. The molecule also gave an IC50 in the test listed under Mus musculus of over 10000 nM.

Consider `Cc1c(C(=O)c2cc3ccccc3c3ccccc23)c2ccccc2n1CCN1CCOCC1`, for which, in test [1], the inhibition worked out at 75%. The molecule further yielded an IC50 in the test listed under Mus musculus of 175 nM.

For `COc1ccc(C(=O)c2c(F)n(CCN3CCOCC3)c3ccccc23)cc1`, the inhibition in test [1] is 7%.

Take `Cc1c(C(=O)c2cccc3ccccc23)c2ccccc2n1C(C)CN1CCOCC1` (racemic; form 1): the inhibition in test [1] came out at 79%.

On to `COc1ccc(C(=O)c2c(C)n(CCN3CCS(=O)(=O)CC3)c3ccccc23)cc1`, for which the inhibition in test [1] was -4%.

As for `Cc1c(C(=O)c2ccccc2C#N)c2ccccc2n1CCN1CCOCC1`, in test [1], the inhibition turned out to be 0%.

With `COc1ccc(C(=O)c2c(C)n(CCN3CCOCC3)c3ccc(C)cc23)cc1`, the inhibition in test [1] was 7%. The IC50 in the test filed under Mus musculus is over 10000 nM.

`Cc1c(C(=O)c2cccc(F)c2)c2ccccc2n1CCN1CCOCC1`: the inhibition in test [1] was determined as 38%.

Consider `COc1ccc(C(=O)c2c(C)n(C(C)CN3CCOCC3)c3ccccc23)cc1` (stereo unspecified), for which the inhibition in test [1] is 34%. The same molecule registered an IC50 in the test filed under Mus musculus of 1360 nM.

With `Cc1c(C(=O)c2cccc(C#N)c2)c2ccccc2n1CCN1CCOCC1`, the inhibition in test [1] turned out to be 1%.

Turning to `Cc1ccccc1C(=O)c1c(C)n(CCN2CCOCC2)c2ccccc12`, the inhibition in test [1] was 13%. Also, the IC50 in the test listed under Mus musculus is 715 nM.

As to `N#Cc1ccc(C(=O)c2cn(CCN3CCOCC3)c3ccccc23)c2ccccc12`, the inhibition in test [1] is 96%. Further, in the test listed under Mus musculus, 4.8 nM corresponded to half-maximal inhibition (IC50).

With `Cc1c(C(=O)c2ccc(C#N)cc2)c2ccccc2n1CCN1CCOCC1`, the inhibition in test [1] was -1%. Besides, the IC50 in the test filed under Mus musculus is over 10000 nM.

On to `Cc1c(C(=O)c2cccc3ccccc23)c2ccccc2n1CCN1CCNCC1`, for which the inhibition in test [1] was -9%.

As to `Cc1c(C(=O)c2ccccc2Cl)c2ccccc2n1CCN1CCOCC1`, the inhibition in test [1] was found to be 59%. In the test listed under Mus musculus, 92 nM corresponded to half-maximal inhibition (IC50).

Turning to `COc1ccc(C(=O)c2c(C#N)n(CCN3CCOCC3)c3ccccc23)cc1`, the inhibition in test [1] came to 3%.

Regarding `Cc1c(C(=O)c2cccc3cc4ccccc4cc23)c2ccccc2n1CCN1CCOCC1`, the inhibition in test [1] was 74%. For the same molecule, 57 nM corresponded to half-maximal inhibition in the test listed under Mus musculus (IC50).

As for `Cc1c(C(=O)c2cccc3ccccc23)c2ccccc2n1CC(=O)O`, the inhibition in test [1] came to 21%. This molecule also returned an IC50 in the test listed under Mus musculus of 9740 nM.

Turning to `C[N+]1(CCn2cc(C(=O)c3cccc4ccccc34)c3ccccc32)CCOCC1`, the inhibition in test [1] stood at 14%. Further, the IC50 in the test filed under Mus musculus is 180 nM.

On to `COc1cccc(C(=O)c2c(C)n(CCN3CCOCC3)c3ccccc23)c1`, for which the inhibition in test [1] was 76%. In the test filed under Mus musculus, 206 nM corresponded to half-maximal inhibition (IC50).

In the case of `Cc1[nH]c2ccccc2c1C(=O)c1cccc2ccccc12`, the inhibition in test [1] amounted to 3%. In addition, the IC50 in the test listed under Mus musculus is over 10000 nM.

Take `COc1ccc(C(=O)c2cn(C(C)CN3CCOCC3)c3ccccc23)cc1` (stereo unspecified): in test [1], the inhibition was 35%. The molecule further yielded an IC50 in the test listed under Mus musculus of 3670 nM.

For `COc1ccc(C(=O)c2c(C)n(CCN3CCCC3)c3ccccc23)cc1`, the inhibition in test [1] was 7%. Besides, it took 241 nM to reach half-maximal inhibition in the test filed under Mus musculus (IC50).

For `COc1ccc(C(=O)c2c(C)n(CCN3CCOCC3)c3c(OC)cccc23)cc1`, in test [1], the inhibition was 64%. Further, the IC50 in the test listed under Mus musculus was 266 nM.

For the molecule `COc1ccc(C(=O)c2c(C)n(CCCN3CCOCC3)c3ccccc23)cc1`, the inhibition in test [1] was -6%. Further, the IC50 in the test listed under Mus musculus stood at 360 nM.

For the molecule `COc1ccc(C(=O)c2c(C)n(CCN3CCOCC3)c3ccc(OC)cc23)cc1`, the inhibition in test [1] amounted to 14%. Further, the IC50 in the test listed under Mus musculus was over 10000 nM.

As for `Cc1c(C(=O)c2ccc(C(C)(C)C)cc2)c2ccccc2n1CCN1CCOCC1`, in test [1], the inhibition was determined as 56%.

Consider `Cc1c(C(=O)c2ccccc2F)c2ccccc2n1CCN1CCOCC1`, for which, in test [1], the inhibition was 15%. This molecule showed a 50% inhibitory concentration (IC50) in the test filed under Mus musculus of 1940 nM.

For `Cc1c(C(=O)c2cnc3ccccc3c2)c2ccccc2n1CCN1CCOCC1`, in test [1], the inhibition came to 28%. The molecule also returned an IC50 in the test filed under Mus musculus of 571 nM.

`Cc1c(C(=O)c2ccc(Cl)cc2)c2ccccc2n1CCN1CCOCC1`: the inhibition in test [1] worked out at 62%. Besides, in the test filed under Mus musculus, the IC50 was found to be 564 nM.

Turning to `Cc1cccc(C)c1C(=O)c1c(C)n(CCN2CCOCC2)c2ccccc12`, the inhibition in test [1] is -5%. This molecule also returned an IC50 in the test filed under Mus musculus of 1570 nM.

On to `Cc1c(C(=O)c2ccc(O)cc2)c2ccccc2n1CCN1CCOCC1`, for which the inhibition in test [1] was found to be 15%. The molecule also came in with an IC50 in the test listed under Mus musculus of over 10000 nM.

Regarding `COc1ccc(C(=O)c2c(C)n(CCN3CCCCC3)c3ccccc23)cc1`, the inhibition in test [1] was 34%. This molecule had an IC50 in the test filed under Mus musculus of 1430 nM.

Take `O=C(c1cccc2c1CCCC2)c1cn(CCN2CCOCC2)c2ccccc12`: the inhibition in test [1] was 97%. Besides, in the test filed under Mus musculus, the IC50 came out at 6 nM.

`COc1ccc(C(=O)c2c(O)n(CCN3CCOCC3)c3ccccc23)cc1`: in test [1], the inhibition stood at 1%.

Take `COc1ccc(C(=O)c2c(C)n(CC[N+]3([O-])CCOCC3)c3ccccc23)cc1`: in test [1], the inhibition was -9%. In addition, in the test listed under Mus musculus, the IC50 is over 10000 nM.

On to `Cc1c(C(=O)c2cccc3ccoc23)c2ccccc2n1CCN1CCOCC1`, for which the IC50 in the test filed under Mus musculus stood at 17 nM; at Cannabinoid receptor 1, 71 nM.

Consider `COc1ccc(C(=O)c2c(C)n(CCN(C)C)c3ccccc23)cc1`, for which the inhibition in test [1] was 11%.

The values are drawn from ChEMBL document CHEMBL1128746, “Aminoalkylindoles: structure-activity relationships of novel cannabinoid mimetics” (J Med Chem, 1995).
